For the assay, the target named is T1, human A3 receptor (Homo sapiens, UniProt P0DMS8).
T1 construct: expressed in transfected cells
T1 sequence (P0DMS8 1-318): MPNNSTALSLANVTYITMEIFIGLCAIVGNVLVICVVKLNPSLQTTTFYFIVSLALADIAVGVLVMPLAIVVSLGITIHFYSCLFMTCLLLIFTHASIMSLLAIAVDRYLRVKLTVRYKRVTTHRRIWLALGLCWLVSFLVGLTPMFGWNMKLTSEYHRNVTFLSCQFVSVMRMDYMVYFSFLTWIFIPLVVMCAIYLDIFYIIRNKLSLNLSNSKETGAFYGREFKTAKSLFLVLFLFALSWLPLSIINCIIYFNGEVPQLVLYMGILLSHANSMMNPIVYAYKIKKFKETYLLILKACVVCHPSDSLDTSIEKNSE
Put plainly: Radioligand displacement binding, [125I]AB-MECA, mammalian membranes. Conditions: [125I]AB-MECA 0.75 nM; 10 ug mammalian membranes; 60 minutes room temperature; read-out: IC50 hA3R. (In general: In a radioligand displacement assay an active substance lowers the binding of a labelled ligand.)

The values below come from patent US20020015967A1, “FUNCTIONAL EXPRESSION OF ADENOSINE RECEPTORS IN YEAST” (priority 1998, published 2002).

For orientation: IC50 means the point on the concentration scale where inhibition reaches its midpoint.

On to `O=c1[nH]c(=O)c2nc3ccccc3nc2[nH]1` [Alloxozine], for which the IC50 is 8.22 µM.
